Laboratory results from ChEMBL document CHEMBL5291721, “A preclinical secondary pharmacology resource illuminates target-adverse drug reaction associations of marketed drugs” (Nat Commun, 2023).
*1 amine or outer side, *2 acyl side, *3 side chain or, on linkers, in order; H or OH if unused. Where a SMILES comes first, the peptide text is derived from it. Bridges are numbered along the chain shown (N, C = ends). [ ]: non-standard residue; d: D form. The star is where a group is joined. hTyr(3S-OH,4S-OH,3'-OSO3H) = N[C@H](C(=O)O)[C@H](O)[C@@H](O)c1ccc(O)c(OS(=O)(=O)O)c1; Orn(4R-OH,5R-OH) = O=C([C@H](C[C@@H](O)[C@@H](O)N[*:3])N[*:1])[*:2]; Pro(3S-OH,4S-Me) = C[C@H]1CN[C@H](C(=O)O)[C@H]1O; X1 = CCCCCOc1ccc(-c2cc(-c3ccc(C(=O)*)cc3)no2)cc1; Gln(3R-OH) = NC(=O)C[C@@H](O)[C@H](N)C(=O)O; Hyp = O=C(O)[C@@H]1C[C@@H](O)CN1

Assays:
Adenosine receptor A3 = molecular target: T1, Adenosine receptor A3 (Homo sapiens, UniProt P0DMS8)
T1 sequence (P0DMS8 whole entry): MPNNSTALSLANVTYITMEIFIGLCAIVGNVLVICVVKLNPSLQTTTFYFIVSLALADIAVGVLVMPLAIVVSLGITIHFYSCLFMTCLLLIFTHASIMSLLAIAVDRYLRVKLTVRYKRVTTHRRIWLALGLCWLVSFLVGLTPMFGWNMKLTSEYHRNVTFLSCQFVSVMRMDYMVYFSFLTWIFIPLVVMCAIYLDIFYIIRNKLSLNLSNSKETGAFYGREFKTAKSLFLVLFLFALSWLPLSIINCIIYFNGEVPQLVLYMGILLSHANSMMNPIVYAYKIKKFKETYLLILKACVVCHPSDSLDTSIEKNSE

[1] = molecular target: Vascular endothelial growth factor receptor 2 (Homo sapiens, UniProt P35968); format: functional
[2] = molecular target: T2, Alpha-1A adrenergic receptor (Homo sapiens, UniProt P35348); format: functional, cell-based
T2 sequence (P35348 whole entry): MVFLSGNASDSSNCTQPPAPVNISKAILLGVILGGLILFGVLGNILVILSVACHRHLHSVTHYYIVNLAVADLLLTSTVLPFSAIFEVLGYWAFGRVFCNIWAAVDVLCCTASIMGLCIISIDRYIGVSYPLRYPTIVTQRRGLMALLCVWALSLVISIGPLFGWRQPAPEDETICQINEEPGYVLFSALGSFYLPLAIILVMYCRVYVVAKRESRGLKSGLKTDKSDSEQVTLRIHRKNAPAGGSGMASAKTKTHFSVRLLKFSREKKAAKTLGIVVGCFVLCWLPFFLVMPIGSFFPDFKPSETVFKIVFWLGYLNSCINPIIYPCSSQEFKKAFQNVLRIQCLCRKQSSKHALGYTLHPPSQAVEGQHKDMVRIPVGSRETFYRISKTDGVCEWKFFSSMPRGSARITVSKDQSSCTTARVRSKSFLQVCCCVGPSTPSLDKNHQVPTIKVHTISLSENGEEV

[3] = molecular target: Gamma-aminobutyric acid receptor subunit alpha-1 (Rattus norvegicus, UniProt P62813)
Further: assay procedure not described here.

Chain of Gamma-aminobutyric acid receptor subunit alpha-1 (P62813 whole entry): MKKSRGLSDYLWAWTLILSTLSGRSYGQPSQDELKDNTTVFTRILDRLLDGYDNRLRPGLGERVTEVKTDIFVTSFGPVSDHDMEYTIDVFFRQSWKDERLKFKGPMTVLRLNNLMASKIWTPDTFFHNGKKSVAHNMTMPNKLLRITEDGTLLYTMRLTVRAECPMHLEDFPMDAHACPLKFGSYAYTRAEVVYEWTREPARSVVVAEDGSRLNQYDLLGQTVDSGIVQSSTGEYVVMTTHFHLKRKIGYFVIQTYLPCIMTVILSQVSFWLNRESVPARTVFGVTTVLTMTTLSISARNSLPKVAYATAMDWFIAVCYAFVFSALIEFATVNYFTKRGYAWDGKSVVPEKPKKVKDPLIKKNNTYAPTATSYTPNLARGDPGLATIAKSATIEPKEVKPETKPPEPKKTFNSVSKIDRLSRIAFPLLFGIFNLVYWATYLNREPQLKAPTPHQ
Chain of Vascular endothelial growth factor receptor 2 (P35968 whole entry): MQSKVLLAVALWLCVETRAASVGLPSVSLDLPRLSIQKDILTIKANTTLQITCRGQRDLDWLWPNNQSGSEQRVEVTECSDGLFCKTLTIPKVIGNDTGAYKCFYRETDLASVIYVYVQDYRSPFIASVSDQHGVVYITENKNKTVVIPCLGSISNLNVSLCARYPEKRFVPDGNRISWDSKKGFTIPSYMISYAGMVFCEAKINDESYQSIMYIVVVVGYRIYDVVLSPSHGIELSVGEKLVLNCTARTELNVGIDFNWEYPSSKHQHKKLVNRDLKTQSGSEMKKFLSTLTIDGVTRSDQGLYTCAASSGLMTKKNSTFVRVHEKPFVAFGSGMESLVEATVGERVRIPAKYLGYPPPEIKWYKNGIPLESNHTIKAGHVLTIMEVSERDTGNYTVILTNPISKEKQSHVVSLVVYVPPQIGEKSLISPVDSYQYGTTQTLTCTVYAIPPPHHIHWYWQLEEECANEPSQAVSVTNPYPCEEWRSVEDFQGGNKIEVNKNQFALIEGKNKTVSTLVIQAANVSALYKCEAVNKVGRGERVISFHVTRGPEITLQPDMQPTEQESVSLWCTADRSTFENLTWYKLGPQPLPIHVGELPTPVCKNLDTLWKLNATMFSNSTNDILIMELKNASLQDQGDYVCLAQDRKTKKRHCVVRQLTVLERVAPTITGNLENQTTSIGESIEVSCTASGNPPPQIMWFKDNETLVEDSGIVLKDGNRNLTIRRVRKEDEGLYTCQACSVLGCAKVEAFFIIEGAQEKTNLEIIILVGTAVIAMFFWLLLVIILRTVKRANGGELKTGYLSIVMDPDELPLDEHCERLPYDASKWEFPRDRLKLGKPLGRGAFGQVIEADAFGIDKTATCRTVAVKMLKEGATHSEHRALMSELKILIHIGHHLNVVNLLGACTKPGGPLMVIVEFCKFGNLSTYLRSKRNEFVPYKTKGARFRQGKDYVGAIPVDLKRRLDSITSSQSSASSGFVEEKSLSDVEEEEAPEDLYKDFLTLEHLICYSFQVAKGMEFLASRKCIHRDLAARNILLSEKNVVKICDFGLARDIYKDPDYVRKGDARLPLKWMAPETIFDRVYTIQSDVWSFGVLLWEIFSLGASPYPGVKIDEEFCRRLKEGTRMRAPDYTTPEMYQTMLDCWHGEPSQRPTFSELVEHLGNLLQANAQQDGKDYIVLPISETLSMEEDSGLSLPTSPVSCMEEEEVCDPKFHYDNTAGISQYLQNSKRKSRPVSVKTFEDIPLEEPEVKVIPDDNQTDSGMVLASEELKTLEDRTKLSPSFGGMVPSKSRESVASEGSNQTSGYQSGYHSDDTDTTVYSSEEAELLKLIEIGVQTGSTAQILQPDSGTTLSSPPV

| SMILES | AC50 (Adenosine receptor A3) | AC50 [1] | AC50 [2] | AC50 [3] |
| --- | --- | --- | --- | --- |
| CC1(C)O[C@@H]2C[C@H]3[C@@H]4CCC5=CC(=O)CC[C@]5(C)[C@@]4(F)[C@@H](O)C[C@]3(C)[C@]2(C(=O)CCl)O1 [HALCINONIDE] | > 30 µM | > 30 µM | > 30 µM | > 30 µM |
| C[C@]12CCC(=O)C=C1CC[C@@H]1[C@@H]2[C@@H](O)C[C@@]2(C)[C@H]1CC[C@]2(O)C(=O)COC(=O)CCC(=O)O [HYDROCORTISONE HEMISUCCINATE ANHYDROUS] | > 30 µM | > 30 µM | > 30 µM | > 30 µM |
| N=C(N)NCc1cccc([123I])c1 [IOBENGUANE I 123] | > 30 µM | > 30 µM | 10.7 µM | > 30 µM |
| C=C1c2c(Cl)ccc(O)c2C(=O)C2=C(O)[C@]3(O)C(=O)C(C(N)=O)=C(O)[C@@H](N(C)C)[C@@H]3[C@@H](O)[C@H]12 [MECLOCYCLINE] | > 30 µM | > 30 µM | > 30 µM | > 30 µM |
| CCCCCOc1ccc(-c2cc(-c3ccc(C(=O)N[C@H]4C[C@@H](O)[C@@H](O)NC(=O)[C@@H]5[C@@H](O)[C@@H](C)CN5C(=O)[C@H]([C@H](O)CC(N)=O)NC(=O)[C@H]([C@H](O)[C@@H](O)c5ccc(O)c(OS(=O)(=O)O)c5)NC(=O)[C@@H]5C[C@@H](O)CN5C(=O)[C@H]([C@@H](C)O)NC4=O)cc3)no2)cc1 [MICAFUNGIN] (X1-[Orn(4R-OH,5R-OH)]T[Hyp][hTyr(3S-OH,4S-OH,3'-OSO3H)][Gln(3R-OH)][Pro(3S-OH,4S-Me)]; lactam 1-C) | 11.4 µM | > 30 µM | > 30 µM | > 30 µM |
| C#C[C@]1(O)CC[C@H]2[C@@H]3CCC4=C(CCC(=O)C4)[C@H]3CC[C@@]21C [NORETHYNODREL] | 10.1 µM | > 30 µM | 17.4 µM | > 30 µM |
| CC(C)COc1ccc(CNC(=O)N(Cc2ccc(F)cc2)C2CCN(C)CC2)cc1 [PIMAVANSERIN] | > 30 µM | > 30 µM | 11.4 µM | > 30 µM |
| NCCc1ccc(O)cc1 [TYRAMINE] | > 30 µM | > 30 µM | > 30 µM | > 30 µM |
